Measurements reported in patent US20070243273A1, “Reduction of the Deleterious Effects of Tobacco Smoking” (SaviPu Pharmaceuticals, priority 2006, published 2007).

Key:
RTE cells = assay: toxicity of tanshinone IIA to RTE cells; assay type: cell-based, rat
Protocol: (§1) The rat tracheal epithelial (RTE) cell focus inhibition assay was used to identify potential chemopreventive activity of tanshinone IIA. Tanshinone IIA was evaluated for its ability to inhibit benzo[a]pyrene-induced transformation of RTE cells. Tracheal epithelial cells were isolated from 8-12 week-old male Fisher 344 rats and plated on collagen coated dishes. Initially, a nontoxic concentration of tanshinone IIA was determined by treating RTE cells with a range of 1.5 nM to 3000 nM of tanshinone IIA. […] About 10% cells survived at a concentration of 1500 nM. Freshly isolated RTE cells were exposed to benzo[a]pyrene alone or in combination with tanshinone IIA. Benzo[a]pyrene was washed out after an exposure of 24 h. The maximal non-toxic concentration and four half log concentrations of tanshinone IIA (300 nM to 3 nM) were used for the chemopreventive assay. After 30 days in culture, transformed foci were scored and inhibition was quantitated. […] A positive control of retinoic acid inhibited the transformation frequency by 50% at 1 nM.

[1] = tested on: benzo[a]pyrene-induced transformation of RTE cells; assay: rat tracheal epithelial (RTE) cell focus inhibition assay; assay type: cell-based
Protocol: as §1

Cc1coc2c1C(=O)C(=O)c1c-2ccc2c1CCCC2(C)C [Tanshinone IIA]
cells survived (RTE cells; 1500 nM): About 10%
concentration found nontoxic to RTE cells (RTE cells; tested range 1.5 nM to 3000 nM): ≤ 150 nM
toxicity to the cells (RTE cells; very low concentrations (3 nM)): nontoxic
prevention of benzo[a]pyrene-induced transformation of rat tracheal epithelial cells ([1]; 3 nM): totally prevented
inhibition of transformation frequency ([1]; each dose level, 300 nM to 3 nM, benzo[a]pyrene exposure 24 h, foci scored after 30 days in culture): complete inhibition

CC1=C(/C=C/C(C)=C/C=C/C(C)=C/C(=O)O)C(C)(C)CCC1 [retinoic acid, reference compound]
inhibition at 0.001 µM ([1]; Rattus norvegicus, 1 nM, positive control, read-out: inhibition of transformation frequency): 50%
